In patent publication US10954214B2 (Janssen Pharmaceutica NV, priority 2016, dated 2021):

Tests used:
TMD8 cells = assay: 4-day proliferation assay, TMD8; assay type: cell-based; settings: Homo sapiens, 96 h, 4 days incubation, CellTiterGLO, read-out: Anti-proliferation: TMD-8 IC50
Procedure, shortened: (§1)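 Each line was plated at 10,000 cells per well for linear growth, with no beta-mercaptoethanol during the assay. OCI-Ly3 cells were below passage 10.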

OCI-Ly3 cells = assay: 4-day proliferation assay, OCI-Ly3; assay type: cell-based, human; settings: Homo sapiens, 96 h, 4 days incubation, CellTiterGLO, read-out: Anti-proliferation: OCI-LY-3 IC50
Procedure, shortened: as §1

Jurkat cells = assay: PMA Induced IL2 Production In Jurkat Cells; assay type: cell-based; settings: Homo sapiens, PMA/Ionomycin, 20 h, read-out: IL-2 prod h Jurkat PMA IC50
Method: Jurkat cells were maintained in complete RPMI 1640 media containing 10% fetal bovine serum, 10 mM HEPES, 100 units/mL of penicillin and 100 μg/mL of streptomycin. Prior to the assay, compounds were made 2- to 4-fold serial dilutions in DMSO. A volume of 10 μL of DMSO-diluted compound in each well were further diluted into 240 μL RPMI1640 complete media. Jurkat cells were harvested by centrifuge at 1200 RPM for 5 min, washed one time with RPMI 1640 media, and suspended in fresh complete RPMI 1640 media at concentration of 1.25×10^6 cell/mL. A volume of 160 uL of Jurkat cells (2×10^5 cells) were seeded in each well of 96 well plate-bottom plates. A volume of 20 uL of diluted compound in RMPI 1640 complete media were added to each well and incubated with Jurkat cells for 30 min at 37° C. in a 5% CO2 incubator. A volume 20 μL of diluted PMA/Ionomycin (81 nM/1.3 uM respectively, ebioscience, catalog number 00-4970-93) in RMPI 1640 complete media were added to each well. After incubation at 37° C. in 5% CO2 incubator for 20 h, supernatants were harvested. IL-2 concentration was assessed by ELISA (IL2 Duoset, R&D Systems, catalog number DY202). Colorimetric intensity at 450 nm was read by Spectramax plate reader and analyzed with Softmax Pro software. Cell viability was assessed by Cell Titer Glo kit (Promega, catalog number G7571) using Victor Luminescence reader (Victor 3V 4202938 by Perkin Elmer).

[1] = target: full-length MALT1 protein (Strep-MALT1(1-824)-His) (Homo sapiens (Human), UniProt Q9UDY8); assay: MALT1 Biochemical Protease Assay (Ac-LRSR-AMC substrate); settings: 10 nM FL MALT1, 200 μM Ac-LRSR-AMC, 4 h at RT; read-out: MALT1_Biochemical activity (Ac-LRSR-amc) IC50
Procedure, shortened: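 Fluorescence from AMC release off the quenched LRSR substrate was read after a 4 h reaction at RT. Values were normalised to no-enzyme and uninhibited controls and fitted for IC50 and Hill coefficient.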

[2] = system: IL10 secretion by TMD8 ABC-DLBCL cells; assay: Human IL10 Mesoscale assay (TMD-8); assay type: cell-based; settings: Homo sapiens, TMD8; TMD-8 cells, 24 h
Procedure, shortened: (§2)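 After 24 h at 37 °C with test compounds (15 μM down to 58.6 nM, 9 twofold steps, 0.3% DMSO), IL6 and IL10 secreted by 100,000 OCI-LY3 or TMD8 cells per well were measured in supernatants with a Mesoscale immunoassay. Data were scaled between DMSO wells (high) and RN486 treatment (low).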

[3] = system: IL6 secretion by TMD8 ABC-DLBCL cells; assay: Human IL6 Mesoscale assay (TMD-8); assay type: cell-based; settings: Homo sapiens, TMD8; TMD-8 cells, 24 h
Procedure, shortened: as §2

Sequence of full-length MALT1 protein (Strep-MALT1(1-824)-His) (Q9UDY8 whole entry): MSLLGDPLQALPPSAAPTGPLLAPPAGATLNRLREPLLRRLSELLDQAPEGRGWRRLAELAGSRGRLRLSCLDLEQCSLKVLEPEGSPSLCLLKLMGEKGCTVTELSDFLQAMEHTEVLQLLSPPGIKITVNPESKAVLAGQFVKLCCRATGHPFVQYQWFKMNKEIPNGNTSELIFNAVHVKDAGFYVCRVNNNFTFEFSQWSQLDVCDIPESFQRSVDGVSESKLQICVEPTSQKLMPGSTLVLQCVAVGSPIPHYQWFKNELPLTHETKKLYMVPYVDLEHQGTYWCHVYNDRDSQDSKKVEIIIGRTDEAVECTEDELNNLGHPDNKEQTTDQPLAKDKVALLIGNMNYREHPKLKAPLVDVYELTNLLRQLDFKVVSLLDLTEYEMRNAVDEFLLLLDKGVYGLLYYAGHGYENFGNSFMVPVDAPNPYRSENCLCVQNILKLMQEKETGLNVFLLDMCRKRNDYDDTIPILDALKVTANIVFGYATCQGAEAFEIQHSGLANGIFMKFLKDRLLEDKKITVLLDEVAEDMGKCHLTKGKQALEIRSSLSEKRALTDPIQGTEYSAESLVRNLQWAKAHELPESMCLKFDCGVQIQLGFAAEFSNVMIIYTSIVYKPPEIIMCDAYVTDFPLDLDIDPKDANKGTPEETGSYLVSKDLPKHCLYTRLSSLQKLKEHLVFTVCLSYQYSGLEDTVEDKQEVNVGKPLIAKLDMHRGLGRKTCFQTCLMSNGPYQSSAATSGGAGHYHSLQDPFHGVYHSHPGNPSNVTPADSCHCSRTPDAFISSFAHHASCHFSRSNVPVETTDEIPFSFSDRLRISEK

Row | Structure (SMILES) | IC50 (OCI-Ly3 cells) | IC50 (Jurkat cells) | IC50 [1] | IC50 [2] | IC50 [3] | IC50 (TMD8 cells)
1 | O=C(Nc1cnc(-c2ncco2)c(Cl)c1)c1cnn(-c2cccc3ccncc23)c1C(F)(F)F [Cpd 22, N-(5-chloro-6-(oxazol-2-yl)pyridin-3-yl)-1-(isoquinolin-8-yl)-5-(trifluoromethyl)-1H-pyrazole-4-carboxamide] | ~310 nM | 1860 nM | 661 nM | – | > 15000 nM | 17000 nM
2 | O=C(Nc1ccnc(C(F)(F)F)c1)c1cnn(-c2cccc3ncccc23)c1C(F)(F)F [Cpd 6, 1-(Quinolin-5-yl)-5-(trifluoromethyl)-N-(2-(trifluoromethyl)pyridin-4-yl)-1H-pyrazole-4-carboxamide] | 620 nM | 23 nM | 91 nM | – | 112 nM | 9330 nM
3 | O=C(Nc1cnc(-n2nccn2)c(Cl)c1)c1cnn(-c2cccc3ccccc23)c1C(F)(F)F [Cpd 2, N-(5-Chloro-6-(2H-1,2,3-triazol-2-yl)pyridin-3-yl)-1-(naphthalen-1-yl)-5-(trifluoromethyl)-1H-pyrazole-4-carboxamide] | 420 nM | 59 nM | 12 nM | 28 nM | 52 nM | 13800 nM
4 | O=C(Nc1cncc(C(F)(F)F)c1)c1cnn(-c2cccc3ccccc23)c1C(F)(F)F [Cpd 4, 1-(Naphthalen-1-yl)-5-(trifluoromethyl)-N-(5-(trifluoromethyl)pyridin-3-yl)-1H-pyrazole-4-carboxamide] | ~500 nM | 360 nM | 200 nM | 214 nM | 339 nM | ~15800 nM
5 | O=C(Nc1ccc(-n2nccn2)c(Cl)c1)c1cnn(-c2cccc3ccncc23)c1C(F)(F)F [Cpd 11, N-(3-chloro-4-(2H-1,2,3-triazol-2-yl)phenyl)-1-(isoquinolin-8-yl)-5-(trifluoromethyl)-1H-pyrazole-4-carboxamide] | ~9550 nM | 680 nM | 977 nM | – | ~13500 nM | 12600 nM
6 | O=C(Nc1cnc(-n2nccn2)c(Cl)c1)c1cnn(-c2cccc3ncccc23)c1C(F)(F)F [Cpd 8, N-(5-Chloro-6-(2H-1,2,3-triazol-2-yl)pyridin-3-yl)-1-(quinolin-5-yl)-5-(trifluoromethyl)-1H-pyrazole-4-carboxamide] | 110 nM | 5.2 nM | 13 nM | – | 32 nM | ~7590 nM
7 | N#Cc1cc(NC(=O)c2cnn(-c3cccc4ccncc34)c2C(F)(F)F)cnc1-n1nccn1 [Cpd 19, N-(5-cyano-6-(2H-1,2,3-triazol-2-yl)pyridin-3-yl)-1-(isoquinolin-8-yl)-5-(trifluoromethyl)-1H-pyrazole-4-carboxamide] | 1100 nM | 410 nM | 229 nM | – | 1950 nM | > 20000 nM
8 | Cc1cc2ccccc2c(-n2ncc(C(=O)Nc3cnc(-n4nccn4)c(Cl)c3)c2C(F)(F)F)n1 [Cpd 9, N-(5-Chloro-6-(2H-1,2,3-triazol-2-yl)pyridin-3-yl)-1-(3-methylisoquinolin-1-yl)-5-(trifluoromethyl)-1H-pyrazole-4-carboxamide] | ~2400 nM | 39 nM | 65 nM | – | 195 nM | 10700 nM
9 | CCc1c(C(=O)Nc2cnc(-n3nccn3)c(Cl)c2)cnn1-c1cccc2ncccc12 [Cpd 17, N-(5-Chloro-6-(2H-1,2,3-triazol-2-yl)pyridin-3-yl)-5-ethyl-1-(quinolin-5-yl)-1H-pyrazole-4-carboxamide] | ~4370 nM | 170 nM | 141 nM | – | 794 nM | 9330 nM

Continued, in another order:

Row | IC50 (OCI-Ly3 cells) | IC50 (Jurkat cells) | IC50 [1] | IC50 [2] | IC50 [3] | Structure (SMILES) | IC50 (TMD8 cells)
10 | 1910 nM | 270 nM | 63 nM | 141 nM | 135 nM | Cc1ccc2cncc(-n3ncc(C(=O)Nc4cnc(-n5nccn5)c(Cl)c4)c3C(F)(F)F)c2c1 [Cpd 36, N-(5-Chloro-6-(2H-1,2,3-triazol-2-yl)pyridin-3-yl)-1-(6-methylisoquinolin-4-yl)-5-(trifluoromethyl)-1H-pyrazole-4-carboxamide] | 7940 nM
11 | 110 nM | 2 nM | 19 nM | 14 nM | 17 nM | O=C(Nc1cnc(-n2nccn2)c(Cl)c1)c1cnn(-c2cncc3ccccc23)c1C(F)(F)F [Cpd 32, N-(5-chloro-6-(2H-1,2,3-triazol-2-yl)pyridin-3-yl)-1-(isoquinolin-4-yl)-5-(trifluoromethyl)-1H-pyrazole-4-carboxamide] | 4900 nM
12 | 150 nM | 95 nM | 48 nM | 35 nM | 30 nM | O=C(Nc1cnc(-n2nccn2)c(Cl)c1)c1cnn(-c2ccc(F)c3ncccc23)c1C(F)(F)F [Cpd 40, N-(5-Chloro-6-(2H-1,2,3-triazol-2-yl)pyridin-3-yl)-1-(8-fluoroquinolin-5-yl)-5-(trifluoromethyl)-1H-pyrazole-4-carboxamide] | 6170 nM
13 | 4790 nM | 790 nM | 631 nM | – | 575 nM | CC(C)c1c(C(=O)Nc2cnc(-n3nccn3)c(Cl)c2)cnn1-c1cccc2ncccc12 [Cpd 26, N-(5-chloro-6-(2H-1,2,3-triazol-2-yl)pyridin-3-yl)-5-isopropyl-1-(quinolin-5-yl)-1H-pyrazole-4-carboxamide] | 8710 nM
14 | 210 nM | 130 nM | 35 nM | 91 nM | 79 nM | Cn1ccc(-c2ncc(NC(=O)c3cnn(-c4cncc5ccccc45)c3C(F)(F)F)cc2Cl)n1 [Cpd 52, N-(5-chloro-6-(1-methyl-1H-pyrazol-3-yl)pyridin-3-yl)-1-(isoquinolin-4-yl)-5-(trifluoromethyl)-1H-pyrazole-4-carboxamide] | 5010 nM
15 | 1150 nM | 21 nM | 20 nM | 14 nM | 46 nM | O=C(Nc1ccc(-n2nccn2)c(Cl)c1)c1cnn(-c2cncc3ccccc23)c1C(F)(F)F [Cpd 38, N-(3-chloro-4-(2H-1,2,3-triazol-2-yl)phenyl)-1-(isoquinolin-4-yl)-5-(trifluoromethyl)-1H-pyrazole-4-carboxamide] | 3800 nM
16 | ~1120 nM | 1970 nM | 759 nM | 955 nM | 1950 nM | Cc1c(C(=O)Nc2cnc(-n3nccn3)c(Cl)c2)cnn1-c1cccc2ncccc12 [Cpd 39, N-(5-Chloro-6-(2H-1,2,3-triazol-2-yl)pyridin-3-yl)-5-methyl-1-(quinolin-5-yl)-1H-pyrazole-4-carboxamide] | 14400 nM
17 | 3310 nM | 210 nM | 72 nM | – | 174 nM | O=C(Nc1cnc(-n2nccn2)c(Cl)c1)c1cnn(-c2cccc3ncc(F)cc23)c1C(F)(F)F [Cpd 25, N-(5-Chloro-6-(2H-1,2,3-triazol-2-yl)pyridin-3-yl)-1-(3-fluoroquinolin-5-yl)-5-(trifluoromethyl)-1H-pyrazole-4-carboxamide] | ~14100 nM
18 | 1510 nM | 200 nM | 68 nM | – | 141 nM | Cc1ccc(-n2ncc(C(=O)Nc3cnc(-n4nccn4)c(Cl)c3)c2C(F)(F)F)c2cccnc12 [Cpd 28, N-(5-Chloro-6-(2H-1,2,3-triazol-2-yl)pyridin-3-yl)-1-(8-methylquinolin-5-yl)-5-(trifluoromethyl)-1H-pyrazole-4-carboxamide] | 6610 nM
19 | 3390 nM | 810 nM | 89 nM | – | 107 nM | COc1ncc(NC(=O)c2cnn(-c3cncc4ccccc34)c2C(F)(F)F)cc1Cl [Cpd 23, N-(5-chloro-6-methoxypyridin-3-yl)-1-(isoquinolin-4-yl)-5-(trifluoromethyl)-1H-pyrazole-4-carboxamide] | 8320 nM
